Results taken from patent publication US4346087A, “Antibacterial surface active agent containing azaalkenelactam” (priority 1979, dated 1982).
Converted amounts (≈) assume the structure as drawn. Like-named read-outs stand apart in the source and are kept apart here.

Key:
[1] = system: Escherichia coli NIHJ; experiment: MIC against Escherichia coli NIHJ; type: cell-based
From the text: (§1) Below are described the antibacterial activities of the compounds in the compositions according to this invention.
(§2) The testing method complied with the standard method of Japan Sociaty of Chemotherapy.

[2] = system: Staphylococcus aureus FDA 209P; experiment: MIC against Staphylococcus aureus FDA 209P; type: cell-based
From the text: as §1, §2

[3] = system: Desulfovibrio desulfuricans IFO 13699; experiment: MIC against Desulfovibrio desulfuricans; type: cell-based
From the text: as §1, §2

[4] = system: Pseudomonas aruginosa IFO 3443; experiment: MIC against Pseudomonas aeruginosa; type: cell-based
From the text: (§3) Below are described the antibacterial activities of the compounds in the compositions according to this invention. The results of antibacterial activity tests on the N-alkyl-substituted azaalkenelactams and their derivatives having a carboxylate radical of Examples 1 to 70 were as shown in Tables 1 to 3.
as §2

[5] = system: Bacillus subtilis ATCC 6633; experiment: MIC against Bacillus subtilis ATCC 6633; type: cell-based
From the text: as §3, §2

[6] = system: Pasteurella multocida; experiment: MIC against Pasteurella multocida; type: cell-based
From the text: as §3, §2

[7] = system: Staphylococcus epidermidis; experiment: MIC against Staphylococcus epidermidis; type: cell-based
From the text: as §3, §2

[8] = system: Streptococcus faecalis; experiment: MIC against Streptococcus faecalis; type: cell-based
From the text: as §3, §2

[9] = system: Salmonella typhinurium; experiment: microbe, parasite or virus in culture; type: cell-based, Salmonella typhimurium
From the text: as §3, §2

[10] = Table 1, azaalkenelactams, heart infusion agar, 37° C., 24 hours
[11] = Table 3, heart infusion agar, 37° C., 24 hours
[12] = Staphylococcus aureus, FDA209P, 24 h
[13] = Desulfovibrio desulfuricans, IFO13699, 24 h
[14] = Bacillus subtilis, ATCC6633, 24 h
[15] = Pasteurella multocida, Table 3, heart infusion agar, 37° C., 24 hours, read-out: MIC
[16] = Staphylococcus epidermidis, 24 h
[17] = Staphylococcus epidermidis, Table 3, heart infusion agar, 37° C., 24 hours, read-out: MIC
[18] = Escherichia coli, Table 1, azaalkenelactams, heart infusion agar, 37° C., 24 hours, read-out: MIC
[19] = Staphylococcus aureus, FDA209P, Table 1, azaalkenelactams, heart infusion agar, 37° C., 24 hours, read-out: MIC
[20] = Desulfovibrio desulfuricans, IFO13699, Table 1, azaalkenelactams, heart infusion agar, 37° C., 24 hours, read-out: MIC
[21] = Pseudomonas, IFO3443, Table 3, heart infusion agar, 37° C., 24 hours, read-out: MIC
[22] = Bacillus subtilis, ATCC6633, Table 3, heart infusion agar, 37° C., 24 hours, read-out: MIC
[23] = Table 3, heart infusion agar, 37° C., 24 hours, read-out: MIC
[24] = Enterococcus faecalis, Table 3, heart infusion agar, 37° C., 24 hours, read-out: MIC

## 4-(2-hydroxyhexadecyl)aminoethyl-6-methyl-3,6-dihydro-2H-1,4-diazepin-5-one [Example 41]
[1]
  MIC: 25 µg/mL
[2]; [10]
  MIC: 3.12 µg/mL
[3]; [10]
  MIC: 3.12 µg/mL
[4]; [11]
  MIC: 100 µg/mL
[5]; [11]
  MIC: 3.12 µg/mL
[6]; [11]
  MIC: < 1.56 µg/mL
[7]; [11]
  MIC: 1.56 µg/mL
[8]; [11]
  MIC: 6.25 µg/mL

## CCCCCCCCCCCC(=O)NCCN1CC[N+](CC(=O)[O-])=C(C)CC1=O [4-lauramidoethyl-7-methyl-1-azonia-4-azacyclohept-7-en-5-one-1-acetate]
[1]; Escherichia coli, 24 h
  MIC: 100 µg/mL (≈ 244 µM)
[2]; [12]
  MIC: 50 µg/mL (≈ 122 µM)
[3]; [13]
  MIC: 12.5 µg/mL (≈ 30.5 µM)
[4]; Pseudomonas, IFO3443, 24 h
  MIC: 200 µg/mL (≈ 488 µM)
[5]; [14]
  MIC: 50 µg/mL (≈ 122 µM)
[6]; [15]
  MIC: < 1.56 µg/mL
[9]; 24 h
  MIC: 6.25 µg/mL (≈ 15.3 µM)
[7]; [16]
  MIC: 12.5 µg/mL (≈ 30.5 µM)
[8]; Enterococcus faecalis, 24 h
  MIC: 12.5 µg/mL (≈ 30.5 µM)

## CCCCCCCCCCCCCCNCCN1CC[N+](CC(=O)[O-])=C(C)CC1=O [4-tetradecylaminoethyl-7-methyl-1-azonia-4-azacyclohept-7-en-5-one-1-acetate]
[1]; Escherichia coli, 24 h
  MIC: 100 µg/mL (≈ 236 µM)
[2]; Staphylococcus aureus, FDA209P, Table 2, derivatives having a carboxylate radical, heart infusion agar, 37° C., 24 hours, read-out: MIC
  MIC: 3.12 µg/mL (≈ 7.36 µM)
[3]; Desulfovibrio desulfuricans, IFO13699, Table 2, derivatives having a carboxylate radical, heart infusion agar, 37° C., 24 hours, read-out: MIC
  MIC: 3.12 µg/mL (≈ 7.36 µM)
[4]; Pseudomonas, IFO3443, 24 h
  MIC: 100 µg/mL (≈ 236 µM)
[5]; [14]
  MIC: 12.5 µg/mL (≈ 29.5 µM)
[6]; [15]
  MIC: 3.12 µg/mL (≈ 7.36 µM)
[9]; 24 h
  MIC: 6.25 µg/mL (≈ 14.8 µM)
[7]; [17]
  MIC: 3.12 µg/mL (≈ 7.36 µM)
[8]; Enterococcus faecalis, 24 h
  MIC: 6.25 µg/mL (≈ 14.8 µM)

## CCCCCCCCCCCCNCCN1CCN=C(C)CC1=O [Example 2, 4-dodecylaminoethyl-7-methyl-3,6-dihydro-2H-1,4-diazepin-5-one]
[1]; [18]
  MIC: 25 µg/mL (≈ 74.1 µM)
[2]; [19]
  MIC: 12.5 µg/mL (≈ 37 µM)
[3]; [20]
  MIC: 12.5 µg/mL (≈ 37 µM)
[4]; [21]
  MIC: 100 µg/mL (≈ 296 µM)
[5]; [22]
  MIC: 12.5 µg/mL (≈ 37 µM)
[6]; Pasteurella multocida, 24 h
  MIC: < 1.56 µg/mL
[9]; [23]
  MIC: 3.12 µg/mL (≈ 9.24 µM)
[7]; [17]
  MIC: 1.56 µg/mL (≈ 4.62 µM)
[8]; [24]
  MIC: 12.5 µg/mL (≈ 37 µM)

## CCCCCCCCCCCC(=O)NCCN1CCN=C(C)CC1=O [Example 9, 4-lauramidoethyl-7-methyl-3,6-dihydro-2H-1,4-diazepin-5-one]
[1]; Escherichia coli, 24 h
  MIC: 25 µg/mL (≈ 71.1 µM)
[2]; [12]
  MIC: 12.5 µg/mL (≈ 35.6 µM)
[3]; [13]
  MIC: 6.25 µg/mL (≈ 17.8 µM)
[4]; Pseudomonas, IFO3443, 24 h
  MIC: 100 µg/mL (≈ 284 µM)
[5]; [14]
  MIC: 25 µg/mL (≈ 71.1 µM)
[6]; [15]
  MIC: 3.12 µg/mL (≈ 8.88 µM)
[9]; 24 h
  MIC: 6.25 µg/mL (≈ 17.8 µM)
[7]; [16]
  MIC: 6.25 µg/mL (≈ 17.8 µM)
[8]; Enterococcus faecalis, 24 h
  MIC: 12.5 µg/mL (≈ 35.6 µM)

## CCCCCCCCCCCCCCC(O)CNCCN1CCN=C(C)CC1=O (centres unmarked) [Example 29, 4-(2-hydroxyhexadecyl)aminoethyl-7-methyl-3,6-dihydro-2H-1,4-diazepin-5-one]
[1]; [18]
  MIC: 25 µg/mL (≈ 61 µM)
[2]; [19]
  MIC: 6.25 µg/mL (≈ 15.3 µM)
[3]; [20]
  MIC: 3.12 µg/mL (≈ 7.62 µM)
[4]; [21]
  MIC: 100 µg/mL (≈ 244 µM)
[5]; [14]
  MIC: 3.12 µg/mL (≈ 7.62 µM)
[6]; [15]
  MIC: < 1.56 µg/mL
[9]; [23]
  MIC: 3.12 µg/mL (≈ 7.62 µM)
[7]; [17]
  MIC: 1.56 µg/mL (≈ 3.81 µM)
[8]; [24]
  MIC: 6.25 µg/mL (≈ 15.3 µM)

## CCCCCCCCCCCCNCCNCCN1CCN=C(C)CC1=O [Example 34, 4-dodecylaminoethylaminoethyl-7-methyl-3,6-dihydro-2H-1,4-diazepin-5-one]
[1]; Escherichia coli, 24 h
  MIC: 25 µg/mL (≈ 65.7 µM)
[2]; [19]
  MIC: 3.12 µg/mL (≈ 8.2 µM)
[3]; [20]
  MIC: 3.12 µg/mL (≈ 8.2 µM)
[4]; Pseudomonas, IFO3443, 24 h
  MIC: 100 µg/mL (≈ 263 µM)
[5]; [14]
  MIC: 3.12 µg/mL (≈ 8.2 µM)
[6]; [15]
  MIC: < 1.56 µg/mL
[9]; [23]
  MIC: 3.12 µg/mL (≈ 8.2 µM)
[7]; [17]
  MIC: < 1.56 µg/mL
[8]; Enterococcus faecalis, 24 h
  MIC: 6.25 µg/mL (≈ 16.4 µM)

## CCCCCCCCCCCCCCNCCN1CCN=C(C)CC1=O [Example 35, 4-tetradecylaminoethyl-7-methyl-3,6-dihydro-2H-1,4-diazepin-5-one]
[1]; Escherichia coli, 24 h
  MIC: 6.25 µg/mL (≈ 17.1 µM)
[2]; [19]
  MIC: 1.56 µg/mL (≈ 4.27 µM)
[3]; [20]
  MIC: 1.56 µg/mL (≈ 4.27 µM)
[4]; [21]
  MIC: 54 µg/mL (≈ 148 µM)
[5]; [22]
  MIC: 3.12 µg/mL (≈ 8.53 µM)
[6]; Pasteurella multocida, 24 h
  MIC: < 1.56 µg/mL
[9]; [23]
  MIC: 1.56 µg/mL (≈ 4.27 µM)
[7]; [16]
  MIC: < 1.56 µg/mL
[8]; [24]
  MIC: 3.12 µg/mL (≈ 8.53 µM)

## CCCCCCCCCCCCCCNCCN1CCN=CC(C)C1=O (centres unmarked) [Example 40, 4-tetradecylaminoethyl-6-methyl-3,6-dihydro-2H-1,4-diazepin-5-one]
[1]; Escherichia coli, 24 h
  MIC: 6.25 µg/mL (≈ 17.1 µM)
[2]; [19]
  MIC: 1.56 µg/mL (≈ 4.27 µM)
[3]; [20]
  MIC: 1.56 µg/mL (≈ 4.27 µM)
[4]; Pseudomonas, IFO3443, 24 h
  MIC: 50 µg/mL (≈ 137 µM)
[5]; [14]
  MIC: 3.12 µg/mL (≈ 8.53 µM)
[6]; [15]
  MIC: < 1.56 µg/mL
[9]; [23]
  MIC: 3.12 µg/mL (≈ 8.53 µM)
[7]; [17]
  MIC: < 1.56 µg/mL
[8]; Enterococcus faecalis, 24 h
  MIC: 3.12 µg/mL (≈ 8.53 µM)

## CCCCCCCCCCCCCCNCCN1CCCN=CC(C)C1=O (centres unmarked) [Example 48, 1-tetradecylaminoethyl-3-methyl-3,6,7,8-tetrahydro-1,5-diazocin-2-one]
[1]; Escherichia coli, 24 h
  MIC: 12.5 µg/mL (≈ 32.9 µM)
[2]; [19]
  MIC: 3.12 µg/mL (≈ 8.22 µM)
[3]; [20]
  MIC: 3.12 µg/mL (≈ 8.22 µM)
[4]; Pseudomonas, IFO3443, 24 h
  MIC: 50 µg/mL (≈ 132 µM)
[5]; [14]
  MIC: 6.25 µg/mL (≈ 16.5 µM)
[6]; [15]
  MIC: < 1.56 µg/mL
[9]; [23]
  MIC: 3.12 µg/mL (≈ 8.22 µM)
[7]; [17]
  MIC: 1.56 µg/mL (≈ 4.11 µM)
[8]; Enterococcus faecalis, 24 h
  MIC: 6.25 µg/mL (≈ 16.5 µM)
